Assays:
Test in all cases: Cell growth inhibition assay (Cell Titer Glo)
Type in all cases: cell-based, human
BT549 = settings: BT549, Basal B, 72 h
Protocol: (§1) Cell culture: Breast cell lines were obtained from the ATCC and from collections developed in the laboratories of Drs. Steve Ethier and Adi Gazdar.
(§2) Cell growth inhibition assay and data analysis: Cells were plated at proper density in 96-well plates such that they would remain in log growth at the end of assay time. The cells were allowed to attach overnight before being exposed to CGC-11047 for 72 h. Drugs were dissolved in water as 100 mM stock. For the dose response study, a set of 9 doses from 5×10^−3 to 1.3×10^−8 M (final concentration) in 1:5 serial dilution were added in triplicate wells. The final DMSO concentration in the treated well was 0.3% or less. The cell growth was determined using Cell Titer Glo (CTG) assay (CellTiter-Glo Luminescent Cell Viability Assay, Promega, Madison, Wis.), with slight modification form manufacturer's protocol, at day 0 (time when drug was added) and at day 3 of drug exposure. Briefly, CTG reagent was diluted with PBS (1:1, volume: volume) and the culture media was removed from the 96-well plate prior to adding 50 μl per well of the diluted CTG reagent. Luminescence from the assay was recorded using BIO-TEK FLx800.
(§3) Data calculations were made according to the method described by the NCI/NIH DTP Human Tumor Cell Line Screen Process (http://dtp.nci.nih.gov/branches/btb/ivclsp.html) and as described previously (Monks, A et al., JNCI 83:757-766, 1991). The percent growth curve is calculated as [(T−T0)/(C−T0)]×100, where T0 is the cell count at day 0, C is the vehicle control (e.g. 0.3% DMSO without drug) cell count at day 3, and T is the cell count at the test concentration. The GI50 and TGI value are determined as the drug concentration that results in a 50% and 0% growth at 72 h drug exposure. LC50 is calculated as [(T−T0)/T0]×100=−50, when T<T0.

HCC1500 = settings: HCC1500, Basal B, 72 h
Protocol: as §1, §2, §3

HCC3153 = settings: HCC3153, Basal A, 72 h
Protocol: as §1, §2, §3

HCC38 = settings: HCC38, Basal B, 72 h
Protocol: as §1, §2, §3

Hs578T = settings: Basal B, 72 h
Protocol: as §1, §2, §3

MDAMB157 = settings: MDAMB157, Basal B, 72 h
Protocol: as §1, §2, §3

MDAMB231 = settings: MDAMB231, Basal B, 72 h
Protocol: as §1, §2, §3

MDAMB415 = settings: MDAMB415, Luminal, 72 h
Protocol: as §1, §2, §3

MDAMB436 = settings: MDAMB436, Basal B, 72 h
Protocol: as §1, §2, §3

MDAMB453 = settings: MDAMB453, Luminal, 72 h
Protocol: as §1, §2, §3

MDAMB468 = settings: MDAMB468, Basal A, 72 h
Protocol: as §1, §2, §3

SUM149PT = settings: Basal B, 72 h
Protocol: as §1, §2, §3

SUM185PE = settings: Luminal, 72 h
Protocol: as §1, §2, §3

T47D = settings: Luminal, 72 h
Protocol: as §1, §2, §3

T4 = settings: T4, Basal B, 72 h
Protocol: as §1, §2, §3

ZR751 = settings: ZR751, Luminal, 72 h
Protocol: as §1, §2, §3

ZR7530 = settings: ZR7530, Luminal, 72 h
Protocol: as §1, §2, §3

Question: For CCNCCCNC/C=C\CNCCCNCC [CGC-11047], which “TGI” value (BT549) is on record?
Answer: 1300 µM

Question: And the GI50 (BT549; Homo sapiens, BT-549)?
Answer: 1 µM

Question: What about the “TGI” value (HCC1500) of the same compound?
Answer: 600 µM

Question: And the GI50 (HCC1500; Homo sapiens)?
Answer: 20 µM

Question: And the “TGI” value (HCC3153)?
Answer: 8 µM

Question: What about the GI50 (HCC3153; Homo sapiens) of the same compound?
Answer: 1.3 µM

Question: What about the “TGI” value (HCC38) of the same compound?
Answer: 300 µM

Question: What about the GI50 (HCC38; Homo sapiens) of the same compound?
Answer: 40 µM

Question: What about the “TGI” value (Hs578T) of the same compound?
Answer: 500 µM

Question: What about the GI50 (Hs578T; Homo sapiens, Hs-578T) of the same compound?
Answer: 0.4 µM

Question: What about the GI50 (MDAMB157; Homo sapiens, MDA-MB-157) of the same compound?
Answer: 200 µM

Question: What about the “TGI” value (MDAMB157) of the same compound?
Answer: 1000 µM

Question: What about the GI50 (MDAMB231; Homo sapiens, MDA-MB-231) of the same compound?
Answer: 2000 µM

Question: What about the “TGI” value (MDAMB231) of the same compound?
Answer: >5000 µM

Question: And the GI50 (MDAMB415; Homo sapiens, MDA-MB-415)?
Answer: 20 µM

Question: And the “TGI” value (MDAMB415)?
Answer: 100 µM

Question: What about the GI50 (MDAMB436; Homo sapiens, MDA-MB-436) of the same compound?
Answer: 1000 µM

Question: What about the “TGI” value (MDAMB436) of the same compound?
Answer: 3000 µM

Question: What about the GI50 (MDAMB453; Homo sapiens, MDA-MB-453) of the same compound?
Answer: 500 µM

Question: What about the “TGI” value (MDAMB453) of the same compound?
Answer: >500 µM

Question: What about the GI50 (MDAMB468; Homo sapiens, MDA-MB-468) of the same compound?
Answer: 0.5 µM

Question: And the “TGI” value (MDAMB468)?
Answer: 2000 µM

Question: What about the “TGI” value (SUM149PT) of the same compound?
Answer: 800 µM

Question: And the GI50 (SUM149PT; Homo sapiens)?
Answer: 2 µM

Question: And the GI50 (SUM185PE; Homo sapiens)?
Answer: 300 µM

Question: What about the “TGI” value (SUM185PE) of the same compound?
Answer: >500 µM

Question: And the GI50 (T47D; Homo sapiens)?
Answer: 0.4 µM

Question: And the “TGI” value (T47D)?
Answer: 200 µM

Question: What about the GI50 (T4; Homo sapiens) of the same compound?
Answer: 2 µM

Question: What about the “TGI” value (T4) of the same compound?
Answer: 800 µM

Question: What about the GI50 (ZR751; Homo sapiens, ZR-75-1) of the same compound?
Answer: 13 µM

Question: What about the “TGI” value (ZR751) of the same compound?
Answer: 800 µM

Question: What about the GI50 (ZR7530; Homo sapiens, ZR-75-30) of the same compound?
Answer: 0.8 µM

Question: What about the “TGI” value (ZR7530) of the same compound?
Answer: 1000 µM
